Results reported in patent US20240301359A1, “SYSTEM COMPRISING CISPLATIN-RESISTANT XENOGRAFT FOR NASOPHARYNGEAL CARCINOMA AND METHODS THEREOF” (THE UNIVERSITY OF HONG KONG, priority 2023, published 2024).

How the values were obtained:
Type in all cases: in vivo
[1] = test system: xeno76-CR cisplatin-resistant NPC PDX; assay: ixazomib treatment of xeno76-CR-bearing nude mice
Procedure: (§1) Xeno76-CR-bearing nude mice were randomized into the control and 4 mg/kg ixazomib treatment group (n=4). Referring to FIG. 5A, black arrows represent the treatment day. Data presented are mean (n=4) with error bars showing SEM. Statistical significance was done using one-way ANOVA, **** P<0.0001.
(§2) The images of size and appearance of the xeno76-CR tumor-bearing mice between control and treatment groups on day 21 are shown in FIG. 5B. […] In FIG. 5C and FIG. 5D, data presented are means (n=4) with error bars showing the SEM. Statistical significance was done using the unpaired two-tailed t-test. Black arrows represent the treatment day.

[2] = test system: xeno76 primary NPC; assay: ixazomib sensitivity of primary NPC PDX xeno76; conditions: naïve to radio- and chemotherapy, relatively low dosage
[3] = test system: xeno113 metastatic NPC; assay: ixazomib sensitivity of metastatic NPC PDX xeno113; conditions: relatively low dosage
[4] = body weight and side effects in ixazomib-treated nude mice
Procedure: as §1, §2

[5] = test system: xeno76-CR cisplatin-resistant NPC PDX; assay: cisplatin treatment of xeno76-CR PDX-bearing nude mice; conditions: 3 mg/kg cisplatin weekly i.p., at harvest, ns P>0.05
Procedure: (§3) Parental xeno76 and xeno76-CR-bearing nude mice were randomized into control and treatment groups (n=4). […] The tumor volume was measured and recorded during the whole treatment period, and the tumor growth curves of xeno76 and xeno76-CR are shown in Error! […] Black arrows represent the treatment day. The xeno76 and xeno76-CR nude mice were randomized respectively on day 0 and received the first treatment. Data presented are mean (n=4) with error bars showing SEM. Statistical significance was done using paired two-tailed t-test, *** P<0.001, ns P>0.05. Furthermore, the tumors of xeno76 and xeno76-CR were also weighed and harvested for further investigation (FIG. 2C). Statistical significance was done using the unpaired two-tailed t-test, ** P<0.01, ns P>0.05.

[6] = test system: xeno76 NPC PDX; assay: cisplatin treatment of xeno76 PDX-bearing nude mice
Procedure: as §3

[7] = maximum tolerated dose of cisplatin in nude mice; conditions: weekly i.p.
From the text: A protocol for developing cisplatin-resistant PDX model from the NPC PDX models is described. NPC PDX tissues were implanted in nude mice subcutaneously (FIG. 1).

Compound	sensitivity to ixazomib ([1]; cisplatin-resistant NPC (xeno76-CR), relatively low dosage, summary statement)	tumor weight at the endpoint of the experiment ([1]; xeno76-CR, 4 mg/kg ixazomib, n=4 mean, control group 0.52 g, * P<0.05)	tumor growth (tumor volume) vs control ([1]; xeno76-CR, 4 mg/kg ixazomib, three-week treatment, n=4, **** P<0.0001)	sensitivity to ixazomib [2]	sensitivity to ixazomib [3]	observable side effects or weight loss ([4]; 4 mg/kg ixazomib, xeno76-CR bearing nude mice)	side effects and body weight loss ([4]; all the tested animals, summary statement)	tumor weight vs control [5]	tumor growth (tumor volume) vs control ([6]; 3 mg/kg cisplatin in saline weekly i.p., n=4, *** P<0.001)	tumor weight vs control ([6]; 3 mg/kg cisplatin weekly i.p., at harvest)	maximum tolerated dose [7]
CC(C)C[C@H](NC(=O)CNC(=O)c1cc(Cl)ccc1Cl)B(O)O [ixazomib]	sensitive to ixazomib	0.21 g	effectively inhibited xeno76-CR growth	sensitive to ixazomib	sensitive to ixazomib	did not induce any observable side effects or weight loss	no side effects and body weight loss	–	–	–	–
N.N.[Cl][Pt][Cl] [cisplatin]	–	–	–	–	–	–	–	no significant differences	significantly inhibited	significantly lighter than the xeno76 control group	5 mg/kg
